# Values joined by “and” are separate entries in the source; they are usually repeats but may differ in a detail not shown here. Equal values may be shown once.
# System: 454973-116-R2-J3-PDC spheroids, viability, % test/control
# Test: Anticancer human tumor 454973-116-R2-J3-PDC patient-derived pancreatic carcinoma cell line growth inhibition [GQUAD]
# Conditions: spheroids with HUVEC and MSC; for viability, T/C: stronger effect = lower value
# From the text: DNA G-quadruplex Stabilizer Agents in Combinations in Complex Spheroids
# A high-throughput screen of multi-cell type tumor spheroids was designed to identify active combinations of DNA G-quadruplex stabilizer agents and targeted small molecules. Complex spheroids include a stromal component modeled by human endothelial cells (HUVEC) and fibroblasts modeled by human mesenchymal stem cells (MSCs). The concentration ranges selected for each drug and investigational agent were based upon clinically achievable concentrations if the clinical Cmax of the agent was known.
# Compounds. The drugs and investigational agents: pidnarulex (CX-5461; NSC782164), APTO-253 (NSC789042), BRACO-19 (NSC847499), peposertib (NSC802822), ceralasertib (NSC780249), elimusertib (NSC800525), camonsertib (NSC841442), AZD-1390 (NSC803789), olaparib (NSC753686), talazoparib (NSC767125), ART-558 (NSC835418), sotorasib (NSC818433), MRTX-1133 (NSC836407), SN-38 (NSC673596), topotecan (NSC609699), etoposide (NSC141540), doxorubicin (NSC123127), gemcitabine (NSC613327), 5-fluorouracil (NSC19893), paclitaxel (NSC125973), vemurafenib (NSC761431), panobinostat (NSC761190), R-306465 (JNJ-16241199; NSC773264), adavosertib (NSC754352), TP-3654 (NSC805149), carboplatin (NSC241240), KSQ-4279 (NSC840948), and staurosporine (NSC755774) were obtained from the National Cancer Institute (NCI) Developmental Therapeutics Program Chemical Repository (34). The FDA-approved anticancer drug set is available from the NCI Developmental Therapeutics Program. […] The stock solutions were prepared in dimethyl sulfoxide (DMSO, Sigma-Aldrich, St. Louis, MO, cat. D2650) at 800-fold the tested concentration and stored at -70 degrees C prior to their use. All drugs and investigational agents were tested over a range starting from a high concentration at or near the clinical Cmax and decreasing in half-log increments. If the clinical Cmax for an agent had not been determined, the highest concentration tested was 10 microM.
# 2.3 Cell Culture. All cells were maintained in an incubator at 37 degrees C and 5% CO2 with 95% humidity. The PDC lines were cultured according to standard operating procedures established by the NCI PDMR. All PDCs were thawed and cultured in Matrigel-coated flasks prepared with a working solution of 1X Ham's F-12 nutrient mix, without supplementation (Invitrogen, cat. 11765054), 100 U/mL penicillin-streptomycin (Invitrogen, cat. 15140122), and 2.5% Matrigel (Corning Inc., cat. 354248) for the first three passages. The 857933-349-R-J2-PDC line was cultured in 6C/Colon 1B media, which includes advanced DMEM/F-12 (Thermo Fisher Scientific, cat. 12634028), 10 mM HEPES (Thermo Fisher Scientific, cat. 15630080), 1X GlutaMAX supplement (Thermo Fisher Scientific, cat. 35050061), 0.1 mg/mL primocin (InvivoGen, cat. ant-pm-2), 10% defined fetal bovine serum, heat inactivated (HyClone Laboratories Inc., cat. SH30070.03HI), 50% L-WRN conditioned media (ATCC, cat. CRL-3276), 1.25 mM N-Acetyl-L-cysteine (Sigma-Aldrich, cat. A9165), 10 mM nicotinamide (Sigma-Aldrich, cat. N0636), 1X B-27 supplement (Thermo Fisher Scientific, cat. 17504044), 1X N-2 supplement (Thermo Fisher Scientific, cat. 17502048), 10 microM Y-27632 dihydrochloride (Tocris Bioscience, cat. 1254), and 50 ng/mL human EGF recombinant protein (Thermo Fisher Scientific, cat. PHG0311). The 485176-168-R4-J1-PDC line was cultured in Panc media, which includes all 6C/Colon 1B media components plus 100 ng/mL human FGF-10 (Thermo Fisher Scientific, cat. 100-26), 500 nM SB-431542 (Selleckchem, cat. S1067), and gastrin (Tocris, cat. 3006).
# […]
# [1] = curve of first compound, second compound 0.0316 µM
# [2] = curve of first compound, second compound 0.1 µM
# [3] = curve of first compound, second compound 0.316 µM
# [4] = curve of first compound, second compound 1 µM
# [5] = curve of first compound, second compound 3.16 µM
# [6] = curve of first compound, second compound 10 µM
# [7] = second compound 0.0316 µM, first compound 0.0316 µM
# [8] = second compound 0.0316 µM, first compound 0.1 µM
# [9] = second compound 0.0316 µM, first compound 0.316 µM
# [10] = second compound 0.0316 µM, first compound 1 µM
# [11] = second compound 0.0316 µM, first compound 3.16 µM
# [12] = second compound 0.0316 µM, first compound 10 µM
# [13] = second compound 0.1 µM, first compound 0.0316 µM
# [14] = second compound 0.1 µM, first compound 0.1 µM
# [15] = second compound 0.1 µM, first compound 0.316 µM
# [16] = second compound 0.1 µM, first compound 1 µM
# [17] = second compound 0.1 µM, first compound 3.16 µM
# [18] = second compound 0.1 µM, first compound 10 µM
# [19] = second compound 0.316 µM, first compound 0.0316 µM
# [20] = second compound 0.316 µM, first compound 0.1 µM
# [21] = second compound 0.316 µM, first compound 0.316 µM
# [22] = second compound 0.316 µM, first compound 1 µM
# [23] = second compound 0.316 µM, first compound 3.16 µM
# [24] = second compound 0.316 µM, first compound 10 µM
# [25] = second compound 1 µM, first compound 0.0316 µM
# [26] = second compound 1 µM, first compound 0.1 µM
# [27] = second compound 1 µM, first compound 0.316 µM
# [28] = second compound 1 µM, first compound 1 µM
# [29] = second compound 1 µM, first compound 3.16 µM
# [30] = second compound 1 µM, first compound 10 µM
# [31] = second compound 3.16 µM, first compound 0.0316 µM
# [32] = second compound 3.16 µM, first compound 0.1 µM
# [33] = second compound 3.16 µM, first compound 0.316 µM
# [34] = second compound 3.16 µM, first compound 1 µM
# [35] = second compound 3.16 µM, first compound 3.16 µM
# [36] = second compound 3.16 µM, first compound 10 µM
# [37] = second compound 10 µM, first compound 0.0316 µM
# [38] = second compound 10 µM, first compound 0.1 µM
# [39] = second compound 10 µM, first compound 0.316 µM
# [40] = second compound 10 µM, first compound 1 µM
# [41] = second compound 10 µM, first compound 3.16 µM
# [42] = second compound 10 µM, first compound 10 µM
# 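Note: spheroids exposed to compounds for seven days.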
smiles,measurement,setting,value
CC1COCCN1c1cc(-c2ccnn2C)c2ccnc(-c3ccn[nH]3)c2n1 (stereo unspecified) + CN(C)c1ccc(Nc2c3ccc(NC(=O)CCN4CCCC4)cc3nc3cc(NC(=O)CCN4CCCC4)ccc23)cc1,IC50,[1],0.182 µM
same,IC50,[2],0.19 µM
same,IC50,[3],0.19 µM
same,IC50,[4],0.171 µM
same,IC50,[5],0.141 µM
same,IC50,[6],0.079 µM
same,"viability, T/C",[7],97.9%
same,"viability, T/C",[8],66.8%
same,"viability, T/C",[9],35.2%
same,"viability, T/C",[10],23%
same,"viability, T/C",[11],24%
same,"viability, T/C",[12],29.4%
same,"viability, T/C",[13],102%
same,"viability, T/C",[14],72%
same,"viability, T/C",[15],32.9%
same,"viability, T/C",[16],22.9%
same,"viability, T/C",[17],23.1%
same,"viability, T/C",[18],26.1%
same,"viability, T/C",[19],94.3%
same,"viability, T/C",[20],74.1%
same,"viability, T/C",[21],31%
same,"viability, T/C",[22],21.3%
same,"viability, T/C",[23],21.7%
same,"viability, T/C",[24],29.4%
same,"viability, T/C",[25],91.3%
same,"viability, T/C",[26],63.1%
same,"viability, T/C",[27],36.2%
same,"viability, T/C",[28],20.8%
same,"viability, T/C",[29],22.6%
same,"viability, T/C",[30],27.5%
same,"viability, T/C",[31],87%
same,"viability, T/C",[32],55.5%
same,"viability, T/C",[33],38%
same,"viability, T/C",[34],21.3%
same,"viability, T/C",[35],26.2%
same,"viability, T/C",[36],27.1%
same,"viability, T/C",[37],69.8%
same,"viability, T/C",[38],45.5%
same,"viability, T/C",[39],31.4%
same,"viability, T/C",[40],27.6%
same,"viability, T/C",[41],24.1%
same,"viability, T/C",[42],27%
Cn1ncnc1[C@H]1c2n[nH]c(=O)c3cc(F)cc(c23)N[C@@H]1c1ccc(F)cc1,"viability, T/C",compound 0.000999 µM,105% and 108% and 102%
same,"viability, T/C",compound 0.00316 µM,95.6% and 90.5% and 93.4%
same,"viability, T/C",compound 0.00999 µM,93.2% and 92.4% and 94.9%
same,"viability, T/C",compound 0.0316 µM,90.5% and 84.5% and 95%
same,"viability, T/C",compound 0.0999 µM,87.5% and 93.9% and 86.8%
same,"viability, T/C",compound 0.316 µM,82.2% and 77.3% and 78.9%
same,IC50,curve of compound,> 0.316 µM
Nc1ccn(C2OC(CO)C(O)C2(F)F)c(=O)n1 (stereo unspecified) + Cc1[nH]c2ccc(F)cc2c1-c1nc2c3cccnc3c3ncccc3c2[nH]1,IC50,[1],< 0.0316 µM
same,IC50,[2],< 0.0316 µM
same,IC50,[3],< 0.0316 µM
same,IC50,[4],< 0.0316 µM
same,IC50,[5],< 0.0316 µM
same,IC50,[6],< 0.0316 µM
same,"viability, T/C",[7],20.1%
same,"viability, T/C",[8],13.8%
same,"viability, T/C",[9],17.1%
same,"viability, T/C",[10],17.2%
same,"viability, T/C",[11],17.2%
same,"viability, T/C",[12],15.5%
same,"viability, T/C",[13],19.7%
same,"viability, T/C",[14],13.9%
same,"viability, T/C",[15],15.5%
same,"viability, T/C",[16],13.7%
same,"viability, T/C",[17],17.3%
same,"viability, T/C",[18],14.8%
same,"viability, T/C",[19],15.3%
same,"viability, T/C",[20],15.8%
same,"viability, T/C",[21],17.7%
same,"viability, T/C",[22],14.5%
same,"viability, T/C",[23],16.9%
same,"viability, T/C",[24],15.8%
same,"viability, T/C",[25],19%
same,"viability, T/C",[26],19.2%
same,"viability, T/C",[27],16%
same,"viability, T/C",[28],20.1%
same,"viability, T/C",[29],14.2%
same,"viability, T/C",[30],17.2%
same,"viability, T/C",[31],16.1%
same,"viability, T/C",[32],15.6%
same,"viability, T/C",[33],17.8%
same,"viability, T/C",[34],17.4%
same,"viability, T/C",[35],19.1%
same,"viability, T/C",[36],16.4%
same,"viability, T/C",[37],17.5%
same,"viability, T/C",[38],17.6%
same,"viability, T/C",[39],17%
same,"viability, T/C",[40],17%
same,"viability, T/C",[41],13.8%
same,"viability, T/C",[42],16.6%

# — PubChem BioAssay AID2060508 (Molecular Pharmacology Branch, DTP, NCI, 2025)
